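1) Cells in 96-well plates. 2) Compound, 48 h, 5 concentrations. 3) Linear interpolation between surrounding doses. 4) Unreached endpoint = highest concentration. At the GI50, growth is halved.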 Active and inactive are the calls of the source. Cut-off read from the data, not from the text of the source: active = GI50 up to about 1.1 µM and inactive = higher.
Experiments:
Experiment in all cases: NCI anticancer screen, dose series, 48 h
HOP-62 = test system: HOP-62
ACHN = test system: ACHN
NCI-H522 = test system: NCI-H522
HL-60 = test system: HL-60
HCT-116 = test system: HCT-116
U-251 = test system: U-251
MDA-N = test system: MDA-N
SF-268 = test system: SF-268
OVCAR-3 = test system: OVCAR-3
UACC-257 = test system: UACC-257
UO-31 = test system: UO-31
NCI-H226 = test system: NCI-H226
RXF 393 = test system: RXF 393
COLO 205 = test system: COLO 205
SW-620 = test system: SW-620
CCRF-CEM = test system: CCRF-CEM
Hs-578T = test system: Hs-578T
HT-29 = test system: HT-29
T47D = test system: T47D
UACC-62 = test system: UACC-62

Structure (SMILES)	GI50 (HOP-62)	GI50 (ACHN)	GI50 (NCI-H522)	GI50 (HL-60)	GI50 (HCT-116)	GI50 (U-251)	GI50 (MDA-N)	GI50 (SF-268)	GI50 (OVCAR-3)	GI50 (UACC-257)	GI50 (UO-31)	GI50 (NCI-H226)	GI50 (RXF 393)	GI50 (COLO 205)	GI50 (SW-620)	GI50 (CCRF-CEM)	GI50 (Hs-578T)	GI50 (HT-29)	GI50 (T47D)	GI50 (UACC-62)
COc1ccccc1NC1=NCC(C)S1 (stereo not given)	> 100 µM (inactive)	> 100 µM (inactive)	> 100 µM (inactive)	> 100 µM (inactive)	> 100 µM (inactive)	> 100 µM (inactive)	> 100 µM (inactive)	> 100 µM (inactive)	> 100 µM (inactive)	> 100 µM (inactive)	> 100 µM (inactive)	> 100 µM (inactive)	33.8 µM (inactive)	> 100 µM (inactive)	> 100 µM (inactive)	> 100 µM (inactive)	> 100 µM (inactive)	> 100 µM (inactive)	> 100 µM (inactive)	> 100 µM (inactive)
OC1(c2ccc(Cl)cc2)c2ccccc2-c2nc3ccccc3n21 (stereo not given)	37.8 µM (inactive)	> 100 µM (inactive)	66.8 µM (inactive)	58.9 µM (inactive)	90.4 µM (inactive)	> 100 µM (inactive)	> 100 µM (inactive)	> 100 µM (inactive)	48.4 µM (inactive)	> 100 µM (inactive)	> 100 µM (inactive)	45.9 µM (inactive)	29.2 µM (inactive)	> 100 µM (inactive)	> 100 µM (inactive)	> 100 µM (inactive)	> 100 µM (inactive)	72.6 µM (inactive)	> 100 µM (inactive)	> 100 µM (inactive)
COC(=O)[C@]1(c2cc3ccccc3n2S(=O)(=O)c2ccccc2)CC2CN(C(C)=O)C1CC2=O (stereo not given in full)	5.08 µM (inactive)	1.91 µM (inactive)	1.75 µM (inactive)	1.34 µM (inactive)	1.89 µM (inactive)	1.6 µM (inactive)	2.79 µM (inactive)	2.34 µM (inactive)	1.99 µM (inactive)	2.77 µM (inactive)	1.82 µM (inactive)	2.17 µM (inactive)	1.77 µM (inactive)	2.42 µM (inactive)	1.94 µM (inactive)	0.637 µM (active)	5.94 µM (inactive)	1.96 µM (inactive)	2.16 µM (inactive)	1.67 µM (inactive)
C=CCOC(=O)[C@@H]1C[C@@H](OC(C)(C)C)CN1C(=O)[C@@H]1[C@H]2OC(C)(C)O[C@H]2CN1C(=O)OCC1c2ccccc2-c2ccccc21	1.75 µM (inactive)	15.9 µM (inactive)	0.383 µM (active)	11 µM (inactive)	17.4 µM (inactive)	12.6 µM (inactive)	18.1 µM (inactive)	20.8 µM (inactive)	17.9 µM (inactive)	17.5 µM (inactive)	0.15 µM (active)	21.5 µM (inactive)	10.2 µM (inactive)	18.1 µM (inactive)	20.9 µM (inactive)	16.6 µM (inactive)	21.1 µM (inactive)	17.2 µM (inactive)	19.4 µM (inactive)	17.7 µM (inactive)
COc1cc2oc(-c3ccc4c(c3)OCO4)c(OC)c(=O)c2c(O)c1OC	15.7 µM (inactive)	> 50 µM (inactive)	> 50 µM (inactive)	> 50 µM (inactive)	> 50 µM (inactive)	18.9 µM (inactive)	> 50 µM (inactive)	29.4 µM (inactive)	> 50 µM (inactive)	> 50 µM (inactive)	> 50 µM (inactive)	> 50 µM (inactive)	> 50 µM (inactive)	> 50 µM (inactive)	> 50 µM (inactive)	> 50 µM (inactive)	> 50 µM (inactive)	> 50 µM (inactive)	> 50 µM (inactive)	> 50 µM (inactive)
O=C1OC(OC/C(Br)=C(/Br)COC2OC(=O)C(Cl)=C2Cl)C(Cl)=C1Cl (stereo not given)	11.7 µM (inactive)	10.4 µM (inactive)	2.14 µM (inactive)	1.71 µM (inactive)	3.13 µM (inactive)	7.6 µM (inactive)	8.04 µM (inactive)	9.82 µM (inactive)	4.88 µM (inactive)	12.1 µM (inactive)	6.31 µM (inactive)	26.2 µM (inactive)	5.09 µM (inactive)	4.29 µM (inactive)	2.69 µM (inactive)	1.71 µM (inactive)	13 µM (inactive)	4.93 µM (inactive)	9.95 µM (inactive)	14 µM (inactive)
C=C1CC(CNc2cc(Cl)nc(N)n2)C1	> 100 µM (inactive)	> 100 µM (inactive)	96.8 µM (inactive)	> 100 µM (inactive)	> 10 µM (inactive)	55.6 µM (inactive)	> 100 µM (inactive)	> 100 µM (inactive)	95.7 µM (inactive)	39.6 µM (inactive)	> 100 µM (inactive)	54.2 µM (inactive)	50.9 µM (inactive)	> 100 µM (inactive)	> 100 µM (inactive)	> 100 µM (inactive)	51.4 µM (inactive)	> 100 µM (inactive)	> 10 µM (inactive)	> 100 µM (inactive)
Cc1cc(CN2CCCCC2)c(O)c(CN2CCCCC2)c1	> 100 µM (inactive)	> 100 µM (inactive)	> 100 µM (inactive)	> 100 µM (inactive)	> 100 µM (inactive)	> 100 µM (inactive)	> 100 µM (inactive)	> 100 µM (inactive)	> 100 µM (inactive)	> 100 µM (inactive)	> 100 µM (inactive)	> 100 µM (inactive)	> 100 µM (inactive)	> 100 µM (inactive)	> 100 µM (inactive)	41.3 µM (inactive)	> 100 µM (inactive)	> 100 µM (inactive)	> 100 µM (inactive)	> 100 µM (inactive)
N=C(N)NS(=O)(=O)c1ccc(NNc2c3ccccc3nc3ccccc23)cc1	6.87 µM (inactive)	3.63 µM (inactive)	3.86 µM (inactive)	4.49 µM (inactive)	8.34 µM (inactive)	5.97 µM (inactive)	13.2 µM (inactive)	10.4 µM (inactive)	4.04 µM (inactive)	20 µM (inactive)	13.6 µM (inactive)	1.08 µM (active)	12.9 µM (inactive)	12.6 µM (inactive)	9.31 µM (inactive)	1.23 µM (inactive)	23.9 µM (inactive)	7.28 µM (inactive)	5.73 µM (inactive)	11.9 µM (inactive)
O=[N+]([O-])C(=C1Nc2ccccc2N1)C(Cl)=C(Cl)Cl	> 100 µM (inactive)	> 100 µM (inactive)	> 100 µM (inactive)	65.6 µM (inactive)	88.1 µM (inactive)	> 100 µM (inactive)	> 100 µM (inactive)	44.1 µM (inactive)	18.6 µM (inactive)	> 100 µM (inactive)	65 µM (inactive)	> 100 µM (inactive)	99.1 µM (inactive)	> 100 µM (inactive)	> 100 µM (inactive)	32.4 µM (inactive)	49.8 µM (inactive)	> 100 µM (inactive)	31.1 µM (inactive)	> 100 µM (inactive)
